Test results taken from patent publication US20050197350A1, “Novel quinoline, tetrahydroquinazoline, and pyrimidine derivatives and methods of treatment related to the use thereof” (TAISHO PHARMACEUTICAL CO., LTD., priority 2003, published 2005).

tested on: MCH receptors; experiment: MCH receptor activity class (method not given); conditions: MCH receptor; class by percent of control at 10^-7 M or IC50

SMILES | class
CN(C)c1nc(N[C@H]2CC[C@@H](NC(=S)Nc3ccccc3F)CC2)nc2c1CCCC2 [compound 1978] | 3 (Class 3 The value of percent of control at 10^−7 M was more than 60% or the value of IC50 was more than 200 nM.)
CN(C)c1nc(N[C@H]2CC[C@@H](NC(=S)Nc3ccccc3I)CC2)nc2c1CCCC2 [compound 1979] | 3 (Class 3 The value of percent of control at 10^−7 M was more than 60% or the value of IC50 was more than 200 nM.)
CN(C)c1nc(N[C@H]2CC[C@@H](NC(=S)Nc3cccc(SC(F)(F)F)c3)CC2)nc2c1CCCC2 [compound 1980] | 3 (Class 3 The value of percent of control at 10^−7 M was more than 60% or the value of IC50 was more than 200 nM.)
CN(C)c1nc(N[C@H]2CC[C@@H](NC(=S)Nc3cc(Cl)cc(Cl)c3)CC2)nc2c1CCCC2 [compound 1981] | 3 (Class 3 The value of percent of control at 10^−7 M was more than 60% or the value of IC50 was more than 200 nM.)
CN(C)c1nc(N[C@H]2CC[C@@H](NC(=S)Nc3cc(F)cc(F)c3)CC2)nc2c1CCCC2 [compound 1982] | 3 (Class 3 The value of percent of control at 10^−7 M was more than 60% or the value of IC50 was more than 200 nM.)
CN(C)c1nc(N[C@H]2CC[C@@H](NC(=S)Nc3cccc(C#N)c3)CC2)nc2c1CCCC2 [compound 1983] | 3 (Class 3 The value of percent of control at 10^−7 M was more than 60% or the value of IC50 was more than 200 nM.)
CN(C)c1nc(N[C@H]2CC[C@@H](NC(=S)Nc3cccc(F)c3)CC2)nc2c1CCCC2 [compound 1984] | 3 (Class 3 The value of percent of control at 10^−7 M was more than 60% or the value of IC50 was more than 200 nM.)
CN(C)c1nc(N[C@H]2CC[C@@H](NC(=S)Nc3cccc(I)c3)CC2)nc2c1CCCC2 [compound 1985] | 3 (Class 3 The value of percent of control at 10^−7 M was more than 60% or the value of IC50 was more than 200 nM.)
COc1cccc(NC(=S)N[C@H]2CC[C@@H](Nc3nc4c(c(N(C)C)n3)CCCC4)CC2)c1 [compound 1986] | 3 (Class 3 The value of percent of control at 10^−7 M was more than 60% or the value of IC50 was more than 200 nM.)
CN(C)c1nc(N[C@H]2CC[C@@H](NC(=S)Nc3ccc(OC(F)F)cc3)CC2)nc2c1CCCC2 [compound 1987] | 3 (Class 3 The value of percent of control at 10^−7 M was more than 60% or the value of IC50 was more than 200 nM.)
CN(C)c1nc(N[C@H]2CC[C@@H](NC(=S)Nc3ccc(OC(F)(F)F)cc3)CC2)nc2c1CCCC2 [compound 1988] | 3 (Class 3 The value of percent of control at 10^−7 M was more than 60% or the value of IC50 was more than 200 nM.)
CN(C)c1nc(N[C@H]2CC[C@@H](NC(=S)Nc3ccc(C(F)(F)F)cc3)CC2)nc2c1CCCC2 [compound 1989] | 3 (Class 3 The value of percent of control at 10^−7 M was more than 60% or the value of IC50 was more than 200 nM.)
CN(C)c1nc(N[C@H]2CC[C@@H](NC(=S)Nc3ccc(SC(F)(F)F)cc3)CC2)nc2c1CCCC2 [compound 1990] | 3 (Class 3 The value of percent of control at 10^−7 M was more than 60% or the value of IC50 was more than 200 nM.)
CN(C)c1nc(N[C@H]2CC[C@@H](NC(=S)Nc3ccc(Br)cc3F)CC2)nc2c1CCCC2 [compound 1991] | 3 (Class 3 The value of percent of control at 10^−7 M was more than 60% or the value of IC50 was more than 200 nM.)
CN(C)c1nc(N[C@H]2CC[C@@H](NC(=S)Nc3ccc(Cl)c(C(F)(F)F)c3)CC2)nc2c1CCCC2 [compound 1992] | 3 (Class 3 The value of percent of control at 10^−7 M was more than 60% or the value of IC50 was more than 200 nM.)
CN(C)c1nc(N[C@H]2CC[C@@H](NC(=S)Nc3ccc(F)c(C(F)(F)F)c3)CC2)nc2c1CCCC2 [compound 1993] | 3 (Class 3 The value of percent of control at 10^−7 M was more than 60% or the value of IC50 was more than 200 nM.)
Cc1ccc(Cl)cc1NC(=S)N[C@H]1CC[C@@H](Nc2nc3c(c(N(C)C)n2)CCCC3)CC1 [compound 1994] | 3 (Class 3 The value of percent of control at 10^−7 M was more than 60% or the value of IC50 was more than 200 nM.)
CN(C)c1nc(N[C@H]2CC[C@@H](NC(=S)NC3CC4CCC3C4)CC2)nc2c1CCCC2 (stereo partly drawn) [compound 1995] | 3 (Class 3 The value of percent of control at 10^−7 M was more than 60% or the value of IC50 was more than 200 nM.)
CN(C)c1nc(N[C@H]2CC[C@@H](NC(=S)Nc3ccc(NC(=O)OC(C)(C)C)cc3)CC2)nc2c1CCCC2 [compound 1996] | 3 (Class 3 The value of percent of control at 10^−7 M was more than 60% or the value of IC50 was more than 200 nM.)
COc1ccc(CCNC(=S)N[C@H]2CC[C@@H](Nc3nc4c(c(N(C)C)n3)CCCC4)CC2)cc1OC [compound 1997] | 3 (Class 3 The value of percent of control at 10^−7 M was more than 60% or the value of IC50 was more than 200 nM.)
CN(C)c1nc(N[C@H]2CC[C@@H](NC(=S)NCCc3ccc(Cl)cc3)CC2)nc2c1CCCC2 [compound 1998] | 3 (Class 3 The value of percent of control at 10^−7 M was more than 60% or the value of IC50 was more than 200 nM.)

SMILES | class
CN(C)c1nc(N[C@H]2CC[C@@H](NC(=S)Nc3cc(Cl)c(Cl)c(Cl)c3Cl)CC2)nc2c1CCCC2 [compound 1999] | 3 (Class 3 The value of percent of control at 10^−7 M was more than 60% or the value of IC50 was more than 200 nM.)
CN(C)c1nc(N[C@H]2CC[C@@H](NC(=S)Nc3cc(Cl)c(Cl)cc3Cl)CC2)nc2c1CCCC2 [compound 2000] | 3 (Class 3 The value of percent of control at 10^−7 M was more than 60% or the value of IC50 was more than 200 nM.)
CN(C)c1nc(N[C@H]2CC[C@@H](NC(=S)Nc3c(F)cc(F)cc3F)CC2)nc2c1CCCC2 [compound 2001] | 3 (Class 3 The value of percent of control at 10^−7 M was more than 60% or the value of IC50 was more than 200 nM.)
CC(C)c1cccc(C(C)C)c1NC(=S)N[C@H]1CC[C@@H](Nc2nc3c(c(N(C)C)n2)CCCC3)CC1 [compound 2002] | 3 (Class 3 The value of percent of control at 10^−7 M was more than 60% or the value of IC50 was more than 200 nM.)
CN(C)c1nc(N[C@H]2CC[C@@H](NC(=S)Nc3cc(C(F)(F)F)ccc3Cl)CC2)nc2c1CCCC2 [compound 2003] | 3 (Class 3 The value of percent of control at 10^−7 M was more than 60% or the value of IC50 was more than 200 nM.)
CSc1cccc(NC(=S)N[C@H]2CC[C@@H](Nc3nc4c(c(N(C)C)n3)CCCC4)CC2)c1 [compound 2004] | 3 (Class 3 The value of percent of control at 10^−7 M was more than 60% or the value of IC50 was more than 200 nM.)
CN(C)c1nc(N[C@H]2CC[C@@H](NC(=S)NCc3ccc(Cl)c(Cl)c3)CC2)nc2c1CCCC2 [compound 2005] | 3 (Class 3 The value of percent of control at 10^−7 M was more than 60% or the value of IC50 was more than 200 nM.)
COc1cc(NC(=S)N[C@H]2CC[C@@H](Nc3nc4c(c(N(C)C)n3)CCCC4)CC2)cc(OC)c1 [compound 2006] | 3 (Class 3 The value of percent of control at 10^−7 M was more than 60% or the value of IC50 was more than 200 nM.)
Cc1cc(C)cc(NC(=S)N[C@H]2CC[C@@H](Nc3nc4c(c(N(C)C)n3)CCCC4)CC2)c1 [compound 2007] | 3 (Class 3 The value of percent of control at 10^−7 M was more than 60% or the value of IC50 was more than 200 nM.)
CN(C)c1nc(N[C@H]2CC[C@@H](NC(=S)Nc3cccc(OCc4ccccc4)c3)CC2)nc2c1CCCC2 [compound 2008] | 3 (Class 3 The value of percent of control at 10^−7 M was more than 60% or the value of IC50 was more than 200 nM.)
CN(C)c1nc(N[C@H]2CC[C@@H](NC(=S)Nc3cccc(C(=O)O)c3)CC2)nc2c1CCCC2 [compound 2009] | 3 (Class 3 The value of percent of control at 10^−7 M was more than 60% or the value of IC50 was more than 200 nM.)
Cc1ccc(NC(=S)N[C@H]2CC[C@@H](Nc3nc4c(c(N(C)C)n3)CCCC4)CC2)cc1Cl [compound 2010] | 3 (Class 3 The value of percent of control at 10^−7 M was more than 60% or the value of IC50 was more than 200 nM.)
CN(C)c1nc(N[C@H]2CC[C@@H](NC(=S)NCCCc3ccccc3)CC2)nc2c1CCCC2 [compound 2011] | 3 (Class 3 The value of percent of control at 10^−7 M was more than 60% or the value of IC50 was more than 200 nM.)
CCN(CC)c1ccc(NC(=S)N[C@H]2CC[C@@H](Nc3nc4c(c(N(C)C)n3)CCCC4)CC2)cc1 [compound 2012] | 3 (Class 3 The value of percent of control at 10^−7 M was more than 60% or the value of IC50 was more than 200 nM.)
CCOC(=O)c1ccc(NC(=S)N[C@H]2CC[C@@H](Nc3nc4c(c(N(C)C)n3)CCCC4)CC2)cc1 [compound 2013] | 3 (Class 3 The value of percent of control at 10^−7 M was more than 60% or the value of IC50 was more than 200 nM.)
CN(C)c1nc(N[C@H]2CC[C@@H](NC(=S)NCc3ccc(F)cc3)CC2)nc2c1CCCC2 [compound 2015] | 3 (Class 3 The value of percent of control at 10^−7 M was more than 60% or the value of IC50 was more than 200 nM.)
CC(C)c1ccc(NC(=S)N[C@H]2CC[C@@H](Nc3nc4c(c(N(C)C)n3)CCCC4)CC2)cc1 [compound 2016] | 3 (Class 3 The value of percent of control at 10^−7 M was more than 60% or the value of IC50 was more than 200 nM.)
COc1ccc(NC(=S)N[C@H]2CC[C@@H](Nc3nc4c(c(N(C)C)n3)CCCC4)CC2)c([N+](=O)[O-])c1 [compound 2017] | 3 (Class 3 The value of percent of control at 10^−7 M was more than 60% or the value of IC50 was more than 200 nM.)
COc1ccc(CNC(=S)N[C@H]2CC[C@@H](Nc3nc4c(c(N(C)C)n3)CCCC4)CC2)cc1 [compound 2018] | 3 (Class 3 The value of percent of control at 10^−7 M was more than 60% or the value of IC50 was more than 200 nM.)
COC(=O)c1ccc(NC(=S)N[C@H]2CC[C@@H](Nc3nc4c(c(N(C)C)n3)CCCC4)CC2)cc1 [compound 2019] | 3 (Class 3 The value of percent of control at 10^−7 M was more than 60% or the value of IC50 was more than 200 nM.)
Cc1ccc(NC(=S)N[C@H]2CC[C@@H](Nc3nc4c(c(N(C)C)n3)CCCC4)CC2)c([N+](=O)[O-])c1 [compound 2020] | 3 (Class 3 The value of percent of control at 10^−7 M was more than 60% or the value of IC50 was more than 200 nM.)
